Data set [1] is described as follows: Study of transdermal penetration depth (FITC). To be noted: 0.1 mg FITC, retained 6 hr on porcine ear skin. The procedure: Study of Transdermal Penetration Depth
Each group contained 0.1 mg FITC (fluorescein isothiocyanate), and was uniformly loaded onto the porcine ear skin with an area of 4.5 cm^2 and a thickness of 3 mm, sonicated by the 1-MHz ultrasound sonicator successively at power density of 3 W/cm^2, with each sonication period of 1 min. After sonication, the FITC (and the MBs) retained on the porcine ear skin for 6 hr, and was then washed away.
FIG. 7A-7C are bright-field images, and FIG. 7D-7F are dark-field fluorescent images.

The nature of data set [2]: Transdermal penetration study of Mx released by Mx-COL-MBs (Franz diffusion cell). It is filed as in vitro ADME, porcine. To be noted: Mx 0.3 mg/ml; for Amount of skin penetration (cumulative Mx penetration amount): 18th hour; for Amount of total penetration: 18 hours; for Amount of skin absorption: after 18 hours. The procedure: Transdermal Penetration Study of Mx Released by Mx-COL-MBs
The procedures of the study included: interposing a piece of 3 mm-thick porcine ear skin between a donor cell and a receptor cell of the Franz diffusion cell at a temperature of 37±0.5° C. 1 ml of any one of the abovementioned 6 solutions was applied to the donor cell facing the stratum corneum (SC) side, enabling the MB, Mx, or Mx-COL-MB to penetrate the Parafilm on a bottom of the donor cell and reach the skin. Besides, the receptor cell facing the dermis side was filled with 12 ml of PBS at pH 7.4, accompanied with magnetic stirring at the rate of 600 rpm and 0.01% gentamicin to prevent bacterial degradation of the Mx during the penetration process. At the 0.5th hr, a 1-MHz ultrasound sonicator was positioned 3 mm from the top of the skin, and the skin was sonicated at a power density of 3 W/cm^2 for 1 min. At the time intervals of 0.5, 1, 2, 3, 4, 5, 6, 8, 12 and 18 hours, 1 ml of receptor solution sample filtered by 0.2-μm pores was extracted from the receptor cell to measure the Mx content in the receptor solution, with the receptor solution refilled each time with the same volume of PBS. After 18 hours, the porcine skin sample was washed and then homogenized with 1 ml of the receptor solution. The supernatant was centrifuged to acquire further supernatant to measure the absorbed amount of Mx in the porcine ear skin.

Data set [3] deals with C57BL/6 mice. The data set can be described thus: Study of animal hair growth (skin luminosity of shaved back). It is filed as in vivo. To be noted: for number of mice with significantly lower skin luminosity: day 10, Mx 0.3 mg/ml topical; for hair growth rate: day 16, Mx 0.3 mg/ml. The procedure: Study of Animal Hair Growth
The study utilized 6-week-old C57BL/6 mice weighing 20-25 g, which were shaved at an area of about 10 cm^2 in the back at 8 weeks old, when all of the hair follicles were synchronized in the telogen phase. […] Among all groups, the US treatment was applied at 3 W/cm^2 for 1 min, and the concentration of Mx was 0.3 mg/ml (i.e. 0.5 ml/cm^2) in all groups. The change in skin luminosity of the shaved area was assessed using the Chroma Meter. The hair growth rate was calculated according to the following equation: Hair growth rate (%)=(L1−Ln)/L1×100%
where L1 is the luminosity index of the shaved area, and Ln is the luminosity index of the area at different time intervals.

Where [4] appears, read: with ultrasound treatment 3 W/cm^2, 1 min.
[5] abbreviates: with US treatment 3 W/cm^2, 1 min.

Where “and” joins values, the source holds several entries; their conditions need not be identical. Equal entries are not always repeated.

On to “fluorescein isothiocyanate [Comparative example 7]”, for which the “penetration depth of FITC” value in data set [1] (with US treatment 1 MHz, 3 W/cm^2, 1 min) is given as 405±23 μm.

Turning to `Nc1cc(N2CCCCC2)nc(N)[n+]1[O-]` [Comparative example 8, Minoxidil], in data set [2] (setting [4]), the “Amount of skin penetration (cumulative Mx penetration amount)” value is 113.0 ± 6.0 µg/mL and 113.01 ± 5.95 µg/mL; the “Amount of total penetration” value is 126.04 ± 7.52 µg/mL; the “Amount of skin absorption” value stood at 33.02 ± 1.56 µg/mL. For the same compound, in data set [3] (setting [5]), the “number of mice with significantly lower skin luminosity” value is recorded as 1 and the hair growth rate was determined as 64.5%.

In the case of “fluorescein isothiocyanate [Comparative example 6]”, the “penetration depth of FITC” value in data set [1] (without US treatment) is listed as 312±19 μm.

As for `Nc1cc(N2CCCCC2)nc(N)[n+]1[O-]` [Comparative example 4, Minoxidil], in data set [2] (without ultrasound treatment), the “Amount of skin penetration (cumulative Mx penetration amount)” value was 103.1 ± 0.5 µg/mL and 103.1 ± 0.51 µg/mL; the “Amount of total penetration” value is 155.54 ± 10.05 µg/mL; the “Amount of skin absorption” value turned out to be 52.42 ± 9.55 µg/mL. In data set [3] (without US treatment), the “number of mice with significantly lower skin luminosity” value is recorded as 1 and the hair growth rate turned out to be 45.5%.

Source of the values: patent publication US9974787B2, “Modified albumin microbubble” (National Taiwan University of Science and Technology, priority 2016, dated 2018).
